Holding throughout (assay type): biochemical
One test addresses T1, JAK3 (Homo sapiens, UniProt P52333).
T1 construct: purchased Invitrogen Corporation, Madison, Wis; PV3855
T1 sequence (P52333 1-1124): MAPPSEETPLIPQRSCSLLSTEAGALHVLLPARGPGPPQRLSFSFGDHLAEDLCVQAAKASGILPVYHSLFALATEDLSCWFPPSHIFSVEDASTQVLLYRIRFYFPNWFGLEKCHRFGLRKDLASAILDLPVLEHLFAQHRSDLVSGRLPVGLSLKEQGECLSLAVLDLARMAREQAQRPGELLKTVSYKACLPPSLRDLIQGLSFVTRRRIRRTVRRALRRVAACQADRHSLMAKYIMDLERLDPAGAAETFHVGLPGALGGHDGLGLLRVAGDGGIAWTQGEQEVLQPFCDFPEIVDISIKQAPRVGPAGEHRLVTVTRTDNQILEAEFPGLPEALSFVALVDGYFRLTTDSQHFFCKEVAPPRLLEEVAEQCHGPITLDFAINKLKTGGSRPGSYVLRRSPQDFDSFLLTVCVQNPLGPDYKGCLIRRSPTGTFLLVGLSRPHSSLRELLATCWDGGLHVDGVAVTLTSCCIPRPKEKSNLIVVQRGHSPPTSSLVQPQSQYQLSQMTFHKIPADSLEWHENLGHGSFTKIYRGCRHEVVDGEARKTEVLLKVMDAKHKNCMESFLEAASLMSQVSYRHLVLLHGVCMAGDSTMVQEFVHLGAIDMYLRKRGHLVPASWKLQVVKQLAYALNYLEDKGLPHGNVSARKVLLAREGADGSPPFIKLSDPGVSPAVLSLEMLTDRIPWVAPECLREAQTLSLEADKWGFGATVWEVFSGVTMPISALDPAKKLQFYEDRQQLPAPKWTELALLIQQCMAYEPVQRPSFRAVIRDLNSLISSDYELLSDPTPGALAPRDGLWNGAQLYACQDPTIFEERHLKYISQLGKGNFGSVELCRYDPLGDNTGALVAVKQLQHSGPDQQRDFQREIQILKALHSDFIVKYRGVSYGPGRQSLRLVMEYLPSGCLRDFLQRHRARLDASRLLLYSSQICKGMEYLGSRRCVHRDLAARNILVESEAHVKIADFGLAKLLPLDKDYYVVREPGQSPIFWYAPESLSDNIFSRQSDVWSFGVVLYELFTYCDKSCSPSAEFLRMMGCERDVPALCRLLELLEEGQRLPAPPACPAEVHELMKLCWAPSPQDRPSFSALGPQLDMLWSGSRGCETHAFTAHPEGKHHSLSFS
Briefly: JAK enzymatic assay (peptide mobility shift), JAK3. The settings on record: recombinant JAK3 1 nM, ATP 4 μM, 1 μM JAKtide peptide, 90 minutes. From the text:
Recombinant JAK1 (Catalog Number PV4775), JAK2 (Catalog Number PV4210) and JAK3 (Catalog Number PV3855) were purchased from (Invitrogen Corporation, Madison, Wis.). Tyk2 (His-Tyk2 (888-1182, C936S, C1142S)) used in this study was expressed and purified at Pfizer Laboratories. Adenosine 5′-triphosphate (ATP) was obtained from (Sigma Chemical Company, St. Louis, Mo.). […] Coating Reagent 3 was purchased from (Caliper Life Sciences, Hopkinton, Mass.).
(§1) A peptide mobility shift assay was used to quantify the phosphorylation of the JAKtide (JAK2 and JAK3) or the IRS-1 peptide ([…] and Tyk2). Reactions were carried out in a 384-well plate (Matrical MP-101) in a 10 μL total volume. Reaction mixtures contained 20 mM HEPES, pH 7.4, 10 mM magnesium chloride, 0.01% bovine serum albumin (BSA), 0.0005% Tween-20, ATP (4 μM for JAK2 and JAK3, 40 μM for JAK1 and 7 μM for Tyk2)), 2% DMSO and 1 μM peptide substrate (JAKtide for JAK2 and JAK3 and IRS-1 peptide for JAK1 and Tyk2). Compounds were diluted serially in 100% dimethyl sulfoxide and tested in an 11 point dose response in duplicate or quadruplicate (200 nl of compound/DMSO was added per 10 μL reaction). The reactions were initiated by the addition of enzyme to the final concentration of 2 nM JAK2, 1 nM JAK3, 12 nM Tyk2 or 20 nM JAK1. The assay was run for 240 minutes for JAK1, 150 minutes for JAK2, 90 minutes for JAK3 and 70 minutes for Tyk2. The assays were stopped at the specified times with 20 uL of 140 mM HEPES, 22.5 mM EDTA and 0.15% Coating Reagent 3. The plates were placed on a LabChip 3000 (LC3000) instrument from (Caliper Life Sciences) to measure the formation of phosphorylated peptide. Data was analyzed using Hits Well Analyzer Software from (Caliper Life Sciences) to obtain the amount of product formed.
(§2) Data was then imported into an internal application where each data point is expressed as % inhibition based on uninhibited and no enzyme controls. Dose-response data is then fit using a 4 parameter logistic equation (Equation 1) to determine an IC50.
(§3) Where max is the fitted uninhibited value, min is the fitted complete inhibition value, and s is the slope factor.

In a further test the target is T2, JAK1 (Homo sapiens, UniProt P23458).
T2 construct: purchased Invitrogen Corporation, Madison, Wis; PV4775
The experiment in a line: JAK enzymatic assay (peptide mobility shift), JAK1. The conditions noted are these: recombinant JAK1 20 nM, ATP 40 μM, 1 μM IRS-1 peptide, 240 minutes.
Description: (§4) Recombinant JAK1 (Catalog Number PV4775), JAK2 (Catalog Number PV4210) and JAK3 (Catalog Number PV3855) were purchased from (Invitrogen Corporation, Madison, Wis.). Tyk2 (His-Tyk2 (888-1182, C936S, C1142S)) used in this study was expressed and purified at Pfizer Laboratories. Adenosine 5′-triphosphate (ATP) was obtained from (Sigma Chemical Company, St. Louis, Mo.). The JAKtide peptide (peptide sequence, FITC-[…]) used for the JAK2 and JAK3 assays and the IRS-1 peptide (peptide sequence, 5-FAM-[…]) used for the JAK1 and Tyk2 assays were purchased from (American Peptide Company, Sunnyvale, Calif.). Coating Reagent 3 was purchased from (Caliper Life Sciences, Hopkinton, Mass.).
as §1, §2, §3

In a further test the target is T3, JAK2 (Homo sapiens, UniProt O60674).
T3 construct: purchased Invitrogen Corporation, Madison, Wis; PV4210
The experiment in a line: JAK enzymatic assay (peptide mobility shift), JAK2. The conditions noted are these: recombinant JAK2 2 nM, ATP 4 μM, 1 μM JAKtide peptide, 150 minutes.
Description: as §4, §1, §2, §3

Each structure is given as a SMILES string.

Drawing on patent US8372854B2, “Pyrrolo[2,3-D]pyrimidine compounds” (Pfizer Inc., priority 2009, dated 2013), this text covers IC50 for 15 compounds.

What is called IC50 is the concentration that gives 50% inhibition.

T3 sequence (O60674 whole entry): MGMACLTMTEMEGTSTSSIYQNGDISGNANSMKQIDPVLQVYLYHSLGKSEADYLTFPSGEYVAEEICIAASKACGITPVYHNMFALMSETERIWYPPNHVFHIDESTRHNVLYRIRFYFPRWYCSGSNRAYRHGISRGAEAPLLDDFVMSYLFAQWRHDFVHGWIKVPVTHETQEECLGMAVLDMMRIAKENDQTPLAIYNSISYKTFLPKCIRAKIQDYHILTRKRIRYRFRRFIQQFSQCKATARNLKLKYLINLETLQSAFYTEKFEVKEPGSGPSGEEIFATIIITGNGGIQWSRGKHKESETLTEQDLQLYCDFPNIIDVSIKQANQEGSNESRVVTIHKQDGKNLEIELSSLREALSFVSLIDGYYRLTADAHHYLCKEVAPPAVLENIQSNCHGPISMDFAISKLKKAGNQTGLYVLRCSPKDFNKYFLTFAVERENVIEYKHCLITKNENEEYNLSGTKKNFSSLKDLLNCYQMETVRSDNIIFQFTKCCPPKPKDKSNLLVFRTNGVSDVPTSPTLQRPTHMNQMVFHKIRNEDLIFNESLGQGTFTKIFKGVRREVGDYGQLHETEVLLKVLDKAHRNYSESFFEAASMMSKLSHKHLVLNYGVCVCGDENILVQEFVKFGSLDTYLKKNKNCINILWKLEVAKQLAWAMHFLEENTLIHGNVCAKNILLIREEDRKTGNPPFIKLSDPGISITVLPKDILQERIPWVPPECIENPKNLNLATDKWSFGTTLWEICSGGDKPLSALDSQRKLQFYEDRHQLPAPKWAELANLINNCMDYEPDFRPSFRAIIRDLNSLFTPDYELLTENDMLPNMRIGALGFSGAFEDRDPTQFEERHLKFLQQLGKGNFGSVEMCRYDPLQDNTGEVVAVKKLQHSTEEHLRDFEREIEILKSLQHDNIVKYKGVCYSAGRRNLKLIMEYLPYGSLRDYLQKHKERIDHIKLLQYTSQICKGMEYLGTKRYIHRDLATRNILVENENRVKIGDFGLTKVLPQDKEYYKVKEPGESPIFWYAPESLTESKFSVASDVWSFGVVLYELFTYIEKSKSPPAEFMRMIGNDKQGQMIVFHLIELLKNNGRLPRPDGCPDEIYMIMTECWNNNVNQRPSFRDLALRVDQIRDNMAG
T2 sequence (P23458 whole entry): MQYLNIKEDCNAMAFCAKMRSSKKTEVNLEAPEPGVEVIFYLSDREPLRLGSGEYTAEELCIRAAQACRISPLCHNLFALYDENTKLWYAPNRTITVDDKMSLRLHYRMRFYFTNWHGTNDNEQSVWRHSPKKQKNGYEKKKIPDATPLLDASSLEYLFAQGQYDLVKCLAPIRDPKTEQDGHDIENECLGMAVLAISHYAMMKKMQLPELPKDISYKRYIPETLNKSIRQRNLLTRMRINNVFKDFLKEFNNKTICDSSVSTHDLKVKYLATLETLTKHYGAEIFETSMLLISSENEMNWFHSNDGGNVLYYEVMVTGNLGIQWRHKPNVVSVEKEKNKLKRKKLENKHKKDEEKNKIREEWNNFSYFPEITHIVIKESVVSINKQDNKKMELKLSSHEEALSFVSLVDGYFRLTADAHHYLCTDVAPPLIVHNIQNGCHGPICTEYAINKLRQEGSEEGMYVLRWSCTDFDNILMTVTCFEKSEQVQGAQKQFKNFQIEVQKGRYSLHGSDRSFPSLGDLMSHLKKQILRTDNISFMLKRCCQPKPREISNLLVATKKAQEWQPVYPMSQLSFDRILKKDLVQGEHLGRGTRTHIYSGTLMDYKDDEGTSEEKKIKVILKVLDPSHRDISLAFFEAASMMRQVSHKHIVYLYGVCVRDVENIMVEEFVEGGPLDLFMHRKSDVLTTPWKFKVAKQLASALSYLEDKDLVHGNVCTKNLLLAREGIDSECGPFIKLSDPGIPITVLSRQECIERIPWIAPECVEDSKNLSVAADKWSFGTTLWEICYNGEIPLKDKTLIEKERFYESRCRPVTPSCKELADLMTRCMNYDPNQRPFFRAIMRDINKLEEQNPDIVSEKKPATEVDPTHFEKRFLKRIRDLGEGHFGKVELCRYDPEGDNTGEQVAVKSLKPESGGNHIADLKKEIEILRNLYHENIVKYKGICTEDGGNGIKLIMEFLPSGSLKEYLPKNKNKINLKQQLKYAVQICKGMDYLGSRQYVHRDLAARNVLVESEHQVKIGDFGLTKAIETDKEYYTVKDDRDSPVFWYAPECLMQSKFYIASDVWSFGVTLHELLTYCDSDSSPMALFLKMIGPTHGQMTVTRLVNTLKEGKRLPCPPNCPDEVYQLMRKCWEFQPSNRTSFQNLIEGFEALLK

Turning to `CN(c1ncnc2[nH]ccc12)[C@H]1CC[C@H](CS(=O)(=O)NCCc2ccccc2)CC1` [Example 15, 1-{trans-4-[methyl(7H-pyrrolo-[2,3-d]pyrimidin-4-yl)amino]-cyclohexyl}-N-(2-phenylethyl)-methanesulfonamide], the IC50 was found to be 0.0878 µM at JAK3, 0.00287 µM on JAK1 and 0.012 µM at JAK2.

As for `CN(c1ncnc2[nH]ccc12)[C@H]1CC[C@H](CS(=O)(=O)NCc2ccccc2)CC1` [Example 16, N-benzyl-1-{trans-4-[methyl-(7H-pyrrolo[2,3-d]pyrimidin-4-yl)amino]-cyclohexyl}-methanesulfonamide], the IC50 on JAK3 came out at 0.182 µM; on JAK1 it was 0.0135 µM; on JAK2, 0.0294 µM.

For `CN(CCO)S(=O)(=O)C[C@H]1CC[C@H](N(C)c2ncnc3[nH]ccc23)CC1` [Example 17, N-(2-hydroxyethyl)-N-methyl-1-{trans-4-[methyl-(7H-pyrrolo[2,3-d]pyrimidin-4-yl)amino]cyclohexyl}-methanesulfonamide], the IC50 on JAK3 was 0.332 µM; on JAK1, 0.0163 µM; on JAK2, 0.0442 µM.

For the compound `COc1ccc(CNS(=O)(=O)C[C@H]2CC[C@H](N(C)c3ncnc4[nH]ccc34)CC2)cc1` [Example 18, N-(4-methoxybenzyl)-1-{trans-4-[methyl(7H-pyrrolo[2,3-d]-pyrimidin-4-yl)amino]-cyclo-hexyl}methanesulfonamide], the IC50 is 0.175 µM on JAK3, 0.0213 µM on JAK1 and 0.0275 µM at JAK2.

`CN(c1ncnc2[nH]ccc12)[C@H]1CC[C@H](CS(=O)(=O)NCc2cccnc2)CC1` [Example 19, 1-{trans-4-[methyl(7H-pyrrolo[2,3-d]pyrimidin-4-yl)amino]cyclohexyl}-N-(pyridin-3-ylmethyl)-methanesulfonamide]: the IC50 on JAK3 turned out to be 0.376 µM; at JAK1 it was 0.0093 µM; at JAK2 it was 0.0579 µM.

With `CN(c1ncnc2[nH]ccc12)[C@H]1CC[C@H](CS(=O)(=O)Nc2ccc(CC#N)cc2)CC1` [Example 20, N-[4-(cyanomethyl)phenyl]-1-{trans-4-[methyl(7H-pyrrolo[2,3-d]pyrimidin-4-yl)amino]cyclohexyl}methane-sulfonamide], the IC50 on JAK3 was 0.0961 µM; at JAK1 it was 0.00958 µM; on JAK2 it was 0.0381 µM.

As to `CN(c1ncnc2[nH]ccc12)[C@H]1CC[C@H](CS(=O)(=O)Nc2ccc(C#N)cc2)CC1` [Example 21, N-(4-cyanophenyl)-1-{trans-4-[methyl(7H-pyrrolo[2,3-d]pyrimidin-4-yl)amino]cyclohexyl}-methanesulfonamide], the IC50 on JAK3 was 0.14 µM; on JAK1, 0.0103 µM; on JAK2, 0.0524 µM.

As for `CN(c1ncnc2[nH]ccc12)[C@H]1CC[C@H](CS(=O)(=O)Nc2ccn[nH]2)CC1` [Example 22, 1-{trans-4-[methyl(7H-pyrrolo[2,3-d]pyrimidin-4-yl)amino]cyclohexyl}-N-1H-pyrazol-5-yl-methanesulfonamide], the IC50 on JAK3 was 0.241 µM; on JAK1 it was 0.0152 µM; on JAK2, 0.0324 µM.

As for `Cc1cc(NS(=O)(=O)C[C@H]2CC[C@H](N(C)c3ncnc4[nH]ccc34)CC2)n[nH]1` [Example 23, N-(5-methyl-1H-pyrazol-3-yl)-1-{trans-4-[methyl(7H-pyrrolo[2,3-d]pyrimidin-4-yl)amino]cyclohexyl}-methanesulfonamide], the IC50 at JAK3 was 0.342 µM; at JAK1 it was 0.0186 µM; at JAK2, 0.0305 µM.

As for `CN(c1ncnc2[nH]ccc12)[C@H]1CC[C@H](CS(=O)(=O)Nc2ccc3[nH]ccc3c2)CC1` [Example 24, N-1H-indol-5-yl-1-{trans-4-[methyl(7H-pyrrolo[2,3-d]-pyrimidin-4-yl)amino]-cyclohexyl}-methanesulfonamide], the IC50 came to 0.0558 µM at JAK3, 0.00165 µM on JAK1 and 0.00455 µM at JAK2.

As for `CN(c1ncnc2[nH]ccc12)[C@H]1CC[C@H](CS(=O)(=O)Nc2ccc(Cl)nc2)CC1` [Example 25, N-(6-chloropyridin-3-yl)-1-{trans-4-[methyl(7H-pyrrolo[2,3-d]pyrimidin-4-yl)-amino]cyclohexyl}-methanesulfonamide], the IC50 came out at 0.228 µM on JAK3, 0.0186 µM at JAK1 and 0.0574 µM on JAK2.

For the compound `CN(c1ncnc2[nH]ccc12)[C@H]1CC[C@H](CS(=O)(=O)Nc2ccc3[nH]ncc3c2)CC1` [Example 26, N-1H-indazol-5-yl-1-{trans-4-[methyl(7H-pyrrolo[2,3-d]pyrimidin-4-yl)amino]-cyclohexyl}-methanesulfonamide], the IC50 at JAK3 turned out to be 0.175 µM; at JAK1, 0.019 µM; on JAK2 it was 0.0394 µM.

As to `CN(c1ncnc2[nH]ccc12)[C@H]1CC[C@H](CS(=O)(=O)Nc2ccc3c(c2)OCCCO3)CC1` [Example 27, N-(3,4-dihydro-2H-1,5-benzodioxepin-7-yl)-1-{trans-4-[methyl(7H-pyrrolo[2,3-d]-pyrimidin-4-yl)amino]-cyclo-hexyl}methanesulfonamide], the IC50 at JAK3 is 0.0543 µM; on JAK1, 0.00219 µM; at JAK2, 0.00747 µM.

In the case of `COc1ccc(NS(=O)(=O)C[C@H]2CC[C@H](N(C)c3ncnc4[nH]ccc34)CC2)cn1` [Example 28, N-(6-methoxypyridin-3-yl)-1-{trans-4-[methyl(7H-pyrrolo[2,3-d]pyrimidin-4-yl)amino]cyclohexyl}methane-sulfonamide], the IC50 at JAK3 turned out to be 0.121 µM; on JAK1 it was 0.00872 µM; at JAK2 it was 0.0222 µM.

Regarding `CN(Cc1cccc(N)n1)S(=O)(=O)C[C@H]1CC[C@H](N(C)c2ncnc3[nH]ccc23)CC1` [Example 29, N-[(6-aminopyridin-2-yl)methyl]-N-methyl-1-{trans-4-[methyl(7H-pyrrolo[2,3-d]pyrimidin-4-yl)amino]cyclohexyl}-methanesulfonamide], the values for the half-maximal inhibitory concentration (IC50) on JAK3, on JAK1 and at JAK2 were 0.514 µM, 0.0167 µM and 0.051 µM, respectively.
